The source of these data is publication PMC12169104, “Towards the development of supramolecular self-associating amphiphiles as antibiofilm agents against Pseudomonas aeruginosa and Candida albicans biofilms” (Journal of Materials Chemistry. B, 2025).

In series [1] the test system is polymicrobial biofilms of C. albicans (SC5314) and P. aeruginosa (PAO1). The arrangement: method as in PMID 38222503. The following applies: 0.16 mM, XTT assay, Fig. 8(c); cited from earlier work.
Series [2] is described as follows: Calcein loaded vesicle leakage (lysis) assay. To be noted: 298 K, PBS buffer 5% EtOH. How it is done:
To gauge the activity and selectivity of 1–5 and a–j against microbial membranes, a series of synthetic model vesicle systems were prepared, containing a variety of common bacterial membrane phospholipid headgroups: (i) phosphatidylglycerol (PG) only; (ii) phosphatidylethanolamine (PE) : PG 3 : 1 and; (iii) PE : PG 1 : 1.[50] Following our previous work in this area, we first quantified the ability of 1–5 and co-formulations a–j to lyse the aforementioned synthetic model phospholipid vesicle systems.[49] […] Here the fluorescent dye calcein was loaded into synthetic vesicles at a concentration where the dye self-quenches (70 mM). When the vesicle is lysed, the calcein is released to the extravesicular solution, effectively reducing calcein concentration to a point where the dye no longer undergoes self-quenching. Through comparison to a positive control experiment, in which 100% vesicle lysis was achieved through the addition of 2% X-100 Triton, the proportion of vesicles to undergo lysis in the presence or absence of SSA can be calculated. The data was then fitted to the Hill or linear equation to determine the effective concentration of SSA needed to lyse 50% of the vesicles present in solution (EC50) (Section S14, ESI ^†).[51] […]
Preparation of vesicles: All lipids were purchased as powder stocks from Avanti Polar Lipids. Lipid vesicles were prepared according to standard procedures. Each phospholipid (~ 20 mg) was dissolved in chloroform: methanol 3:1 (~ 10 mL) and the solvent was removed under reduced pressure. The thin film of dried lipid was further dried in vacuo overnight. Lipid films were resuspended in the desired buffer and subjected to 10 freeze-thaw cycles in liquid nitrogen and extruded 19 times through a 200 nm polycarbonate membrane.
Preparation of calcein loaded vesicles:2 Lipid films were resuspended in calcein dye (70 mg calcein, 865 µL deionized H2O, 135 µL NaOH (2 M), with NaOH added dropwise until calcein dissolved) and subjected to 10 freeze-thaw cycles in liquid nitrogen and extruded 19 times through a 200 nm polycarbonate membrane. The suspension was run down a size exclusion column packed with sephadex G-50 using 1 X PBS. The hydrodynamic dimeter of the lipids was monitored using an Anton Paar LitesizerTM 500 to ensure the separation of free and entrapped calcein. Phospholipid concentration was adjusted to 60 µM for vesicle leakage experiments.
Vesicle leakage assay: Black bottom 96-well plates were prepared by serially diluting desired SSA in a EtOH: H2O 1:19 solution across the plate, the appropriate lipid solution (100 µL, 60 µM) was added to each well to give a total well volume of 200 µL. A solution of 2 % Triton X-100 was used for a 100 % lysis control and a EtOH: H2O 1:19 solution was used as a 0 % lysis control. Fluorescent measurements were taken at 25 °C using an excitation value of 495 nm and an optimised gain of 800. Data were acquired in endpoint mode. […]
For fluorescent labelling, the desired vesicles were pre-incubated with DPH (10 µM) at 60 °C for 1 hour.
Membrane fluidity assay: Black bottom 96-well plates were prepared by serially diluting desired SSA in a EtOH: H2O 1:19 solution across the plate, the appropriate DPH labelled vesicles (100 µL, 60 µM) were added to each well to give a total well volume of 200 µL. FP measurements were taken at 25 °C using a 355 nm filter for excitation and a 430 m for emission. […]
Figure S168 – Average (n=3) […] readings of calcein loaded PE:PG 3:1 lipid vesicles (λem = 515 nm) following the addition of j at varying concentrations. Lysis value is triton (1 %). Blue = 1 minute, purple = 5 minutes, pink = 10 minutes, orange = 15 minutes, red = 20 minutes. Error = standard […]
Section S14: Determination of vesicle lysis EC50 values
Data was originally fitted to the Hill equation using origin software. If the fitting of these vesicle lysis data to the Hill equation failed then the data were fitted to a linear line of best fit to estimate EC50 […]
above 0.1 mM. […]

The conditions of series [3]: cited from earlier work; for CAC / CAC (mM) / ST at CAC (mN m^−1): H2O:EtOH 19:1, approx. 291 K; for CAC / CAC (mM): surface tension measurements; for ST at CAC (mN/M): Table S1, same datum as Table 1.
A short description of series [4]: Quantitative 1H NMR spectroscopy (higher order self-association). It counts as physicochemical. To be noted: D2O:EtOH 19:1, 2.78 mM, 298 K; proportion of compound to become NMR silent.
Series [5] is described as follows: Tensiometry: critical aggregation concentration and surface tension. It counts as physicochemical. To be noted: H2O:EtOH 19:1, approx. 291 K; for CAC (mM) / CAC: surface tension measurements, bounds represent the limit of solubility; for Surface tension at limit of solubility: footnote c, CAC not reached.
Where [6] appears, read: PE:PG 1:1 vesicles, 1 min (Timepoint 1 in Table S14).
The mark [7] stands for this setting: PE:PG 1:1 vesicles, 5 min (Timepoint 2 in Table S14).
[8] abbreviates: PE:PG 1:1 vesicles, 10 min (Timepoint 3 in Table S14).
Where [9] appears, read: PE:PG 1:1 vesicles, 15 min (Timepoint 4 in Table S14).
[10] abbreviates: PE:PG 1:1 vesicles, 20 min (Timepoint 5 in Table S14).
Setting [11] is: PE:PG 3:1 vesicles, 1 min (Timepoint 1 in Table S13).
[12] abbreviates: PE:PG 3:1 vesicles, 5 min (Timepoint 2 in Table S13).
Setting [13] is: PE:PG 3:1 vesicles, 10 min (Timepoint 3 in Table S13).
[14] abbreviates: PE:PG 3:1 vesicles, 15 min (Timepoint 4 in Table S13).
Where [15] appears, read: PE:PG 3:1 vesicles, 20 min (Timepoint 5 in Table S13).
Setting [16] is: PG vesicles, 1 min (Timepoint 1 in Table S12), total molar concentration.
Setting [17] is: PG vesicles, 5 min (Timepoint 2 in Table S12).
Setting [18] is: PG vesicles, 10 min (Timepoint 3 in Table S12).
[19] abbreviates: PG vesicles, 15 min (Timepoint 4 in Table S12).
Setting [20] is: PG vesicles, 20 min (Timepoint 5 in Table S12).

The structures appear in SMILES notation. “And” between values parts separate entries of the source, which are not always exact repeats. Equal entries are not always repeated. Where two headings read alike, the source gives them in different places. Marks after values point to notes of the source that are not given here.

Regarding `O=S(=O)(O)CCCNC(=S)Nc1ccc(C(F)(F)F)cc1` [SSA 1], the antibiofilm activity in series [1] was 60–80%. The EC50 in series [2] (setting [6]) is 0.055 mM and 0.0549 mM; in series [2] (setting [7]), 0.01 mM and 0.0095 mM; in series [2] (setting [8]), 0.0048 mM; in series [2] (setting [9]) it was 0.002 mM; in series [2] (setting [10]) it was 0.002 mM and 0.0015 mM; in series [2] (setting [11]), 0.0302 mM. For the same compound, the EC50 in series [2] (setting [12]) was 0.009 mM; in series [2] (setting [13]) it was 0.004 mM; in series [2] (setting [14]), 0.002 mM and 0.0022 mM; in series [2] (setting [15]), 0.002 mM and 0.0017 mM; in series [2] (setting [16]), 0.0677 mM; in series [2] (setting [17]) it was 0.032 mM. The EC50 in series [2] (setting [18]) is 0.0156 mM; in series [2] (setting [19]), 0.0062 mM; in series [2] (setting [20]) it was 0.0037 mM. The “CAC” value in series [3] is listed as 5.61 mM. In series [3], the “CAC (mM)” value is 5.6[43] mM. Also, the “ST at CAC (mN m^−1)” value in series [3] was 34[43] mN m^−1. The “ST at CAC (mN/M)” value in series [3] is given as 33.59 mN/M. Besides, the “Quantitative 1H NMR (%) Anion” value in series [4] is 33%. For the same compound, in series [4], the “Quantitative 1H NMR (%) Cation” value came out at 31%.
Regarding `O=C(O)CNC(=S)Nc1ccc(C(F)(F)F)cc1` [SSA 2], in series [1], the antibiofilm activity is 60–80%. Also, the EC50 in series [2] (setting [6]) is more than 1.5 mM; in series [2] (setting [7]), 1.43 mM; in series [2] (setting [8]) it was 0.83 mM; in series [2] (setting [9]) it was 0.661 mM; in series [2] (setting [10]) it was 0.585 mM; in series [2] (setting [11]), more than 1.5 mM. The EC50 in series [2] (setting [12]) was more than 1.5 mM; in series [2] (setting [13]), more than 1.5 mM; in series [2] (setting [14]), more than 1.5 mM; in series [2] (setting [15]), 1.15 mM; in series [2] (setting [16]), more than 1.5 mM; in series [2] (setting [17]), 1.14 mM. In addition, the values for the EC50 in series [2] (setting [18]), in series [2] (setting [19]) and in series [2] (setting [20]) were 0.727 mM, 0.563 mM and 0.49 mM, respectively. For the same compound, the “CAC (mM)” value in series [5] is >10.0 ^b mM. The “Surface tension at limit of solubility” value in series [5] is listed as 41 ^c mN m^−1. Besides, the “Quantitative 1H NMR (%) Anion” value in series [4] turned out to be 43%. In addition, in series [4], the “Quantitative 1H NMR (%) Cation” value is 39%.
Take `Cc1ccc2nc(-c3ccc(NC(=O)NCS(=O)(=O)O)cc3)sc2c1` [SSA 3]: the EC50 in series [2] (setting [6]) was more than 1.5 mM; in series [2] (setting [7]) it was more than 1.5 mM; in series [2] (setting [8]), 1.33 mM; in series [2] (setting [9]) it was 0.953 mM; in series [2] (setting [10]), 0.829 mM; in series [2] (setting [11]), more than 1.5 mM. In addition, the EC50 in series [2] (setting [12]) was more than 1.5 mM; in series [2] (setting [13]), more than 1.5 mM; in series [2] (setting [14]), more than 1.5 mM; in series [2] (setting [15]) it was more than 1.5 mM; in series [2] (setting [16]), 0.867 mM; in series [2] (setting [17]), 0.615 mM. The EC50 in series [2] (setting [18]) is 0.529 mM; in series [2] (setting [19]), 0.15 mM; in series [2] (setting [20]), 0.17 mM. Further, the “CAC” value in series [3] was 0.5 mM. The “CAC (mM)” value in series [3] is 0.5[42] mM. Besides, in series [3], the “ST at CAC (mN m^−1)” value is 47[42] mN m^−1. Moreover, the “ST at CAC (mN/M)” value in series [3] was 46.5 mN/M. In series [4], the “Quantitative 1H NMR (%) Anion” value amounted to 37%. For the same compound, in series [4], the “Quantitative 1H NMR (%) Cation” value amounted to 37%.
In the case of `O=c1c(NCCCS(=O)(=O)O)c(Nc2ccc(C(F)(F)F)cc2)c1=O` [SSA 4], the EC50 in series [2] (setting [6]) was more than 1.5 mM; in series [2] (setting [7]), more than 1.5 mM; in series [2] (setting [8]), 0.948 mM; in series [2] (setting [9]), 0.675 mM; in series [2] (setting [10]), 0.574 mM; in series [2] (setting [11]) it was more than 1.5 mM. The EC50 in series [2] (setting [12]) is more than 1.5 mM; in series [2] (setting [13]) it was 1.18 mM; in series [2] (setting [14]) it was 0.95 mM; in series [2] (setting [15]), 0.91 mM; in series [2] (setting [16]), 1.02 mM; in series [2] (setting [17]) it was 0.396 mM. The values for the EC50 in series [2] (setting [18]), in series [2] (setting [19]) and in series [2] (setting [20]) were 0.341 mM, 0.288 mM and 0.218 mM, respectively. The “CAC” value in series [5] is given as less than 7.5 mM. Besides, the “CAC (mM)” value in series [5] is listed as >7.5 ^b mM. Also, in series [5], the “Surface tension at limit of solubility” value is 42 ^c mN m^−1. In series [4], the “Quantitative 1H NMR (%) Anion” value came out at 44%. Besides, the “Quantitative 1H NMR (%) Cation” value in series [4] is given as 39%.
Turning to `O=C(O)CNc1c(Nc2ccc(C(F)(F)F)cc2)c(=O)c1=O` [SSA 5], the EC50 in series [2] (setting [6]) was more than 1.5 mM; in series [2] (setting [7]), 0.302 mM; in series [2] (setting [8]), 0.129 mM; in series [2] (setting [9]), 0.1 mM; in series [2] (setting [10]) it was 0.234 mM; in series [2] (setting [11]), more than 1.5 mM. Besides, the EC50 in series [2] (setting [12]) was more than 1.5 mM; in series [2] (setting [13]) it was 0.683 mM; in series [2] (setting [14]), 0.54 mM; in series [2] (setting [15]), 0.429 mM; in series [2] (setting [16]), more than 1.5 mM; in series [2] (setting [17]), 0.641 mM. Moreover, the figures for the EC50 in series [2] (setting [18]), in series [2] (setting [19]) and in series [2] (setting [20]) were 0.13 mM, 0.088 mM and 0.061 mM, respectively. In series [5], the “CAC” value was less than 2.78 mM. Also, in series [5], the “CAC (mM)” value is listed as >2.8 ^b mM. In series [5], the “Surface tension at limit of solubility” value was 43 ^c mN m^−1. In addition, the “Quantitative 1H NMR (%) Anion” value in series [4] turned out to be 33%. For the same compound, in series [4], the “Quantitative 1H NMR (%) Cation” value is reported as 37%.
